Values joined by “and” are separate entries in the source; they are usually repeats but may differ in a detail not shown here. Equal values may be shown once.

The values that follow come from patent US20050159478A1, “Compositions containing d-tocopherol compound polybasic acid partial esters” (priority 2003, published 2005).

A short description of data set [1]: Oscillatory rheology, softening point at tan(δ) = 1. Conditions: for Rheology (oscillatory) @ Tan(δ) = 1 Temperature (softening point): heating rate 5° C./min, oscillation stress 1.0 Pa, 1.0 Hz. The data set is classed as physicochemical. The procedure: Rheology measurements are conducted with TA Instruments Rheolyst AR-1000N rheometer. Experiments are conducted with the parallel plate geometry in a nitrogen atmosphere. The experiments use an oscillation stress of 1.0 Pa at a frequency of 1.0 Hz. The temperature range of the experiments is 40 to 210° C. at a heating rate of 5.0° C./min. Per analogy to rigid sphere or polymers, for TCS samples below the melting point, change in the pseudo G′ and G″ moduli″ is used as an indication of the softening of the sample. The cross-over point corresponds to the point where the ratio of the […] or tan (δ) is equal to one. The temperature at which tan (δ) is equal to one is considered as the softening point for the solid TCS samples. In addition, the second derivative of the loss modulus vs temperature was calculated. A maximum or minimum in the second derivative indicates a curvature or inflexion in the G″ vs T. This can also be taken as indicator of a change in the state of the samples (softening or melting depending on the temperature).
Softening points of these tocopherol succinate samples were identified using oscillatory rheology measurements. The temperature at which tan(δ) is equal to one, i.e., cross-over point (or the point where the samples are less rigid) is considered as their softening point. We call the moduli “pseudo loss and storage moduli”, since below the melting point, the powder cannot in reality be viscoelastic.

Data set [2] can be described thus: Differential Scanning Calorimetry of tocopherol calcium succinate samples. Conditions: heating rate 5° C./min; several thermal transitions per sample. The class given is physicochemical. The procedure:
DSC measurements are conducted with a Perkin Elmer Pyris 1 Differential Scanning Calorimeter. Experiments are conducted between 40° C. and 250° C. at heating/cooling rates of 5.0 and 10.0° C./min. During the experiments, the samples are enclosed in an air tight aluminum pan. The aluminum pan is in a nitrogen purge at 30 psi.
On the technique in general: Differential scanning calorimetry records heat flow against a reference as temperature is scanned.

On to `Cc1c(C)c2c(c(C)c1OC(=O)CCC(=O)[O-])CC[C@@](C)(CCC[C@H](C)CCC[C@H](C)CCCC(C)C)O2.Cc1c(C)c2c(c(C)c1OC(=O)CCC(=O)[O-])CC[C@@](C)(CCC[C@H](C)CCC[C@H](C)CCCC(C)C)O2.[Ca+2]` [d-α-tocopherol calcium succinate], for which the “softening point in comparison to synthetic dl-tocopherol calcium succinate” value in data set [1] (compared with dl-tocopherol calcium succinate) is reported as “significantly improved, i.e., increased, softening point”. Further, in data set [1], the “Rheology (oscillatory) @ Tan(δ) = 1 Temperature (softening point)” value is 151 °C and 153 °C.

`Cc1c(C)c2c(c(C)c1OC(=O)CCC(=O)[O-])CC[C@@](C)(CCC[C@H](C)CCC[C@H](C)CCCC(C)C)O2.Cc1c(C)c2c(c(C)c1OC(=O)CCC(=O)[O-])CC[C@@](C)(CCC[C@H](C)CCC[C@H](C)CCCC(C)C)O2.[Ca+2]` (racemic) [dl-tocopherol calcium succinate, reference compound]: in data set [1], the “Rheology (oscillatory) @ Tan(δ) = 1 Temperature (softening point)” value worked out at 147 °C.

Regarding `Cc1c(C)c2c(c(C)c1OC(=O)CCC(=O)O)CC[C@@](C)(CCC[C@H](C)CCC[C@H](C)CCCC(C)C)O2` [d-α-tocopherol succinic acid], the “Rheology (oscillatory) @ Tan(δ) = 1 Temperature (softening point)” value in data set [1] is 74 °C. Further, in data set [2], the “DSC Enthalpy” value is on record as 80.00 J/g and the “DSC Onset” value is 74.5 °C.
